This series is described as follows: Human HepG2 cell viability assay in 384 well format. Details: dose 125 nL, time 70.5 hour; cytotoxicity at 70.5 h: concentration not given beside the values. The following applies: HepG2 cells, read-out: Inhibition. The class given is toxicity, cell-based.
In the case of `O=C(c1ccc[nH]1)N1CCN(CC2CCOc3ccccc3C2)CC1` (stereo not drawn), the cytotoxicity at 70.5 h came to 16.4%.
Take `Cn1ncnc1NS(=O)(=O)c1ccc(F)cc1`: the cytotoxicity at 70.5 h is -0.583%.
`CC(=O)N[C@@H]1CN(C(=O)c2cnc3ccccc3c2)C[C@H]1O`: the cytotoxicity at 70.5 h was 10.7%.
For `Cc1nccn1-c1ccc(C(C)NCc2cccn2C)cc1` (stereo not drawn), the cytotoxicity at 70.5 h is -4.2%.
On to `O=C(c1ccnnc1)N1CCN(Cc2ccncc2)c2ncccc2C1`, for which the cytotoxicity at 70.5 h is -6.87%.
As to `O=C(C1CCCC1)N1CCOc2cccc(F)c21`, the cytotoxicity at 70.5 h is -7.17%.
Consider `CCn1c(C)nnc1SCCNc1cc(N2CCOCC2)ncn1`, for which the cytotoxicity at 70.5 h is -18.8%.
Regarding `COc1cccc(CN2CCc3nc4ccsc4c(=O)n3CC2)c1`, the cytotoxicity at 70.5 h turned out to be 12.2%.
Then `CCO[C@H]1CO[C@@]2(CCCN(C(=O)c3ccc(OC)c(F)c3)C2)C1`, with 2.45%; and `O=C(C1CCOC1)N1CCC2(CCN(Cc3nccs3)C2)CC1` (stereo not drawn), with -10.1%.
For `CNc1cncc(C2CCCN2Cc2ccccn2)n1` (stereo not drawn), the cytotoxicity at 70.5 h is -6.51%.
On to `CN(C)C(=O)[C@H]1CCS(=O)(=O)[C@@H]2CN(c3ncc(F)cn3)C[C@H]12`, for which the cytotoxicity at 70.5 h was 23.5%.
Consider `CCN1CC(C(=O)NCc2cccnc2-n2cccn2)CC1=O` (stereo not drawn), for which the cytotoxicity at 70.5 h is -7.76%.
As for `CN1CCN2CCN(Cc3ccccc3Cn3cccn3)CC2C1` (stereo not drawn), the cytotoxicity at 70.5 h was -0.968%.
Turning to `CN1CCN(C[C@H]2OC[C@@H]3CCN(C(=O)c4cnccn4)C[C@@H]32)CC1`, the cytotoxicity at 70.5 h was -2.22%.
Regarding `CN(CC(O)C1CC1)C(=O)Nc1ccc(F)c(-n2cccc2)c1` (stereo not drawn), the cytotoxicity at 70.5 h was -2.43%.
With `O=C(Cc1csc(-c2ccoc2)n1)NCCC(=O)N1CCCCC1`, the cytotoxicity at 70.5 h is -2.09%.
As for `CNC(=O)COC1COC2(CCN(c3ccc(C#N)cc3)CC2)C1` (stereo not drawn), the figure is -5.98%; as for `Cc1noc(C)c1NC(=O)NC1CCN(C(=O)OC(C)(C)C)CC1`, -9.26%; as for `O=C(NC[C@H]1OC[C@@H](NCc2cccs2)[C@@H]1O)N1CCOCC1`, 8.48%.
On to `Cc1cc(N2CCCN(C(=O)Cc3cccnc3)CC2)ccn1`, for which the cytotoxicity at 70.5 h was -6.53%.
In the case of `CCN(Cc1ccc(Cl)s1)S(=O)(=O)CC`, the cytotoxicity at 70.5 h stood at 0.4%.
Regarding `Cc1cnc(CN2CCCC2c2noc(C3CC3)n2)cn1` (stereo not drawn), the cytotoxicity at 70.5 h is -6.3%.
As for `CC/N=c1\nc(NCC)nc2n1C(O)(Nc1cccc(C)c1C)CS2` (stereo not drawn), the figure is -6.29%; as for `O=C(c1ccncn1)N1CCC[C@]2(C[C@@H](OCC3CC3)CO2)C1`, -13.8%.
Regarding `CCC(CN1CCCC1)NC(=O)Cc1c(C)[nH]c2c(C)cc(C)cc12` (stereo not drawn), the cytotoxicity at 70.5 h came to 12.8%.
As to `Cc1ncc(CN2CCCC(c3cc(C(N)=O)[nH]n3)C2)s1` (stereo not drawn), the cytotoxicity at 70.5 h is 57.9%.
`Cc1ccc2c(c1)C(NC(=O)C1CCN(S(C)(=O)=O)CC1)CC(C)(C)O2` (stereo not drawn): the cytotoxicity at 70.5 h was -2.93%.
Then `Cc1ccc2nc(NCCCN3CCCCCC3=O)n(C)c(=O)c2c1`, with -20%.
As for `CC(C)c1nc(O)c2nnn(C[C@H]3CCCN(Cc4ccsc4)C3)c2n1`, the cytotoxicity at 70.5 h was -1.06%.
For `CC(C(=O)NCCc1ccc2c(c1)OCCO2)n1cncn1` (stereo not drawn), the cytotoxicity at 70.5 h was -14.6%.
As for `O=C(c1ccc(O)nc1)N1CCN(C(=O)c2ccc(F)cc2F)CC1`, the figure is -7.11%.
Regarding `CN(C)c1nccc(N2CCO[C@H]3CN(Cc4ccsc4)C[C@H]32)n1`, the cytotoxicity at 70.5 h is -6%.
For the molecule `CCS(=O)(=O)N1Cc2nnn(C)c2C(COCCN(C)C)C1` (stereo not drawn), the cytotoxicity at 70.5 h was -0.313%.
In the case of `Cc1nc(CNC(=O)NCCc2ccc(N(C)C)cc2)cs1`, the cytotoxicity at 70.5 h is -0.758%.
For the molecule `Cn1ccc(C(=O)NCC2(O)CCN(c3cnccn3)C2)n1` (stereo not drawn), the cytotoxicity at 70.5 h was -1.53%.
`CC(C)NC(=O)[C@H]1C[C@@H]2[C@@H](C1)OCCN2Cc1ccsc1`: the cytotoxicity at 70.5 h was -6.32%.
As for `O=C(Cc1ccc2c(c1)OCCO2)NC1CCN(CC(F)F)CC1`, the figure is -19.5%; as for `CCN(C)c1ccc(CNS(=O)(=O)C2CCOCC2)cc1F`, -10.6%; as for `COc1ccc2c(ccn2CC(=O)Nc2n[nH]c(CC(C)C)n2)c1`, -11.7%.
Then `CCC(=O)NS(=O)(=O)c1cccnc1Nc1cccc(Cl)c1Cl`, with 31.6%.
With `CCS(=O)(=O)N1CCc2c(COCc3ccncc3)cncc2C1`, the cytotoxicity at 70.5 h came out at 18.9%.
As for `CCCC1(CO)CCCN(Cc2ncccn2)C1` (stereo not drawn), the cytotoxicity at 70.5 h was -5.25%.
As for `COc1cc(CN2CCCC2)ccc1Oc1ncccc1C(F)(F)F`, the figure is 28.7%; as for `Cc1ccc(Oc2ncccc2C(=O)N(C)CCCN(C)C)c(C)c1`, -5.42%.
Regarding `COc1ccc(-c2cc(C3(O)CCOC(C)(C)C3)on2)cc1` (stereo not drawn), the cytotoxicity at 70.5 h is -11.5%.
As to `Cc1ccc(N2CCCC(N(C)Cc3c(C)noc3C)C2)nn1` (stereo not drawn), the cytotoxicity at 70.5 h was found to be 25.3%.
Turning to `CN(Cc1cc(=O)c(O)co1)C1CCCN(c2ccccc2)C1` (stereo not drawn), the cytotoxicity at 70.5 h worked out at 24.6%.
For `CCOCC1CN(Cc2ccc3c(c2)OCO3)Cc2nccn2C1` (stereo not drawn), the cytotoxicity at 70.5 h is 0.869%.
Turning to `COc1cc(F)c(NC(=O)N(C)Cc2cc(C)on2)cc1F`, the cytotoxicity at 70.5 h was -5.99%.
As to `CCOC(=O)c1coc(N2CCC(N3CCC(O)CC3)CC2)n1`, the cytotoxicity at 70.5 h is -7.59%.
As for `CN(Cc1ccncc1)C1COC2(CCN(c3ncc(F)cn3)CC2)C1` (stereo not drawn), the figure is -1.66%; as for `CN(CCc1ccccn1)c1cnn(C)c(=O)c1Br`, -11.5%; as for `COc1cc2c(cc1CN1C[C@@H](CN3CCOCC3)[C@@H](CO)C1)CCC2`, -2.99%.
Then `COc1cccc(-c2n[nH]cc2-c2nc(CN3CCCC3)no2)c1`, with 1.58%; and `COC(=O)c1ccc(CN[C@@H]2COC[C@H]2Cc2cc(C)no2)cc1`, with -4.83%.
As for `Cc1cncc(C(=O)N2CCOc3nc(C)ccc32)c1`, the cytotoxicity at 70.5 h is -7.26%.
Consider `CC(C)c1nc(C(=O)N2CCOCC2CC(=O)c2ccco2)c[nH]1` (stereo not drawn), for which the cytotoxicity at 70.5 h is -14.6%.
As to `Cc1noc(C)c1CNC(=O)N1Cc2ccccc2N(C)CC1C` (stereo not drawn), the cytotoxicity at 70.5 h came to 7.21%.
Turning to `CC(C)c1nn(C)c(N2CCOCC2)c1CN[C@H](C)CO`, the cytotoxicity at 70.5 h is -1.16%.
Consider `CCC(Oc1ccccc1)c1nn2c(CN(CC)CC)nnc2s1` (stereo not drawn), for which the cytotoxicity at 70.5 h was -7.01%.
In the case of `Cc1nc(C)n(CC2CN(CCCOc3ccc(F)cc3)CCO2)n1` (stereo not drawn), the cytotoxicity at 70.5 h is -17.9%.
Regarding `CCN1CCN(CCNC(=O)c2sc(C(C)C)nc2C)CC1`, the cytotoxicity at 70.5 h worked out at 0.965%.
On to `O=C(Cn1cc(-c2ccccc2)ncc1=O)Nc1ncc[nH]1`, for which the cytotoxicity at 70.5 h is -12.3%.
As for `Cc1ccc(C(=O)N2CC[C@@]3(C[C@@H](NS(C)(=O)=O)CCO3)C2)s1`, the figure is 4.89%; as for `Cc1noc([C@H]2COC[C@H]3CN(C(=O)Cc4ccccc4F)C[C@H]32)n1`, -17%; as for `CCc1nc(CN2CCCC(Cn3nc(C)nc3C)C2)no1` (stereo not drawn), -9.12%.
For `CN(C)CCN(C)C(=O)c1cn(CC2CCCCC2)nn1`, the cytotoxicity at 70.5 h was -18.4%.
For the molecule `O=C(CNc1ccc(OC2CCOC2)cc1)NCc1cccs1` (stereo not drawn), the cytotoxicity at 70.5 h was -18.3%.
`COc1ccccc1CN1C[C@@H]2COC[C@]2(COc2cccnc2)C1`: the cytotoxicity at 70.5 h is -116%.
As for `COCCCC(=O)N(C)c1ccc(F)c(Cl)c1`, the figure is -8.74%; as for `O=C(Nc1ccc2c(c1)OCCO2)c1ccc(=O)[nH]n1`, 15.5%; as for `Cc1nnc(N2C[C@H](C(=O)NCC3CC3)[C@@H]3CCO[C@@H]3C2)s1`, -4%.
Then `Cc1nc(-c2ccc(F)cc2)nc2c1CCN(C(=O)CN(C)C)CC2`, with -1.65%.
For `CSCC[C@H](NC(C)=O)c1nc(CC(C)C)n[nH]1`, the cytotoxicity at 70.5 h worked out at 7.09%.
For the molecule `Cc1ccccc1CN1C[C@@H](C(=O)N2CCCCO2)C[C@H]2OCC[C@H]21`, the cytotoxicity at 70.5 h was -7.46%.
With `COCC(=O)N1C[C@@H](CN2CCCN(C)CC2)[C@@H](CO)C1`, the cytotoxicity at 70.5 h is -4.72%.
As to `CCc1noc(C)c1C(=O)N1CCCC(n2nc(C)nc2C)C1` (stereo not drawn), the cytotoxicity at 70.5 h was -2.69%.
As for `Cc1cccnc1CN1CCN(C(=O)[C@@]23CNC[C@@H]2CN(C)C3)CC1`, the cytotoxicity at 70.5 h was -8.36%.
As for `CC(C)N1CCC2(CC1)CN(C)C(=O)C[C@H]2C(F)(F)F`, the cytotoxicity at 70.5 h is -7.67%.
Take `O[C@@H]1Cc2ccccc2[C@@H]1Nc1ncccc1F`: the cytotoxicity at 70.5 h was -9.59%.
Regarding `Cc1cccc(C(C(=O)NCCCc2ccncc2)N(C)C)c1` (stereo not drawn), the cytotoxicity at 70.5 h was -4.41%.
With `CN(Cc1ccsc1)C(=O)CN1CCOC(Cn2cncn2)C1` (stereo not drawn), the cytotoxicity at 70.5 h was -1.49%.
In the case of `O=C(NCCc1c[nH]cn1)c1ccc2c(c1)C(=O)N(C1CC1)C2=O`, the cytotoxicity at 70.5 h was determined as 3.29%.
In the case of `Cc1cc(N(Cc2ccon2)S(C)(=O)=O)ccc1Br`, the cytotoxicity at 70.5 h worked out at 17.3%.
As to `Cc1nn(C)c2ncc(S(=O)(=O)N3CCCN4CCCC4C3)cc12` (stereo not drawn), the cytotoxicity at 70.5 h was -2.09%.
Take `O=C(NCCCn1ccnc1)N1CCCC1c1ccncc1` (stereo not drawn): the cytotoxicity at 70.5 h is -1.54%.
As for `Cc1occc1C(=O)N1CCn2cnc(COCC3CC3)c2C1`, the figure is -0.838%; as for `Cc1ccccc1CN1CCC2(CCCN2C(=O)C(C)C)CC1`, 32.8%; as for `CC(=O)c1cc(C(=O)N2CCC(CC(C)C)C2)c(=O)[nH]c1C` (stereo not drawn), -12.6%.
For `c1ccc2c(c1)COC1(CCCCC1)N2`, the cytotoxicity at 70.5 h was -4.51%.
As to `Cc1nc(CN2CCCC(CCc3c(F)cccc3F)C2)c[nH]1` (stereo not drawn), the cytotoxicity at 70.5 h is -2.43%.
For `O=C(c1cccnc1)N1C[C@@H]2OCC(=O)N(Cc3cccnc3)[C@@H]2C1`, the cytotoxicity at 70.5 h was -3.03%.
Regarding `COC1CCN(C(=O)c2ccccc2NCc2cccnc2)CC1`, the cytotoxicity at 70.5 h was -2.63%.
Then `COCCN1CCN(S(=O)(=O)c2ccccc2)Cc2cccnc21`, with -5.54%.
On to `Cc1ccc(-c2nc(CN3CCOC(Cn4cccn4)C3)co2)cc1` (stereo not drawn), for which the cytotoxicity at 70.5 h is -5.71%.
Then `Cc1cc(CN(C)Cc2ccccc2N2CCCCC2)n[nH]1`, with 1.54%; and `OCCOCCNCC1(c2ccc(F)cc2)CCOC1` (stereo not drawn), with -0.024%.

The values above are taken from ChEMBL document CHEMBL3507680, “University of Dundee, Gates Library screen for HepG2 cell viability”.
